Source: PubChem BioAssay (NCI)
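Assay format: 96-well plates, 48-hour exposure. Here, GI50 denotes the concentration required for 50% inhibition of growth. TGI: concentration producing complete growth inhibition.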

Assays:
Assay in all cases: NCI-60 cell line screen, 48 h
NCI-H226 lung = test system: NCI-H226 lung
NCI-H23 lung = test system: NCI-H23 lung
NCI-H460 lung = test system: NCI-H460 lung
NCI-H522 lung = test system: NCI-H522 lung
NCI/ADR-RES ovarian = test system: NCI/ADR-RES ovarian
OVCAR-3 ovarian = test system: OVCAR-3 ovarian
OVCAR-4 ovarian = test system: OVCAR-4 ovarian
OVCAR-5 ovarian = test system: OVCAR-5 ovarian
OVCAR-8 ovarian = test system: OVCAR-8 ovarian
PC-3 prostate = test system: PC-3 prostate
RPMI-8226 leukemia = test system: RPMI-8226 leukemia
RXF 393 renal = test system: RXF 393 renal
SF-268 CNS = test system: SF-268 CNS
SF-295 CNS = test system: SF-295 CNS
SF-539 CNS = test system: SF-539 CNS
SK-MEL-2 melanoma = test system: SK-MEL-2 melanoma
SK-MEL-28 melanoma = test system: SK-MEL-28 melanoma
SK-MEL-5 melanoma = test system: SK-MEL-5 melanoma
SK-OV-3 ovarian = test system: SK-OV-3 ovarian
SN12C renal = test system: SN12C renal
SNB-19 CNS = test system: SNB-19 CNS
SNB-75 CNS = test system: SNB-75 CNS
SR leukemia = test system: SR leukemia
SW-620 colon = test system: SW-620 colon
T-47D breast = test system: T-47D breast
TK-10 renal = test system: TK-10 renal
U251 CNS = test system: U251 CNS
UACC-257 melanoma = test system: UACC-257 melanoma
UACC-62 melanoma = test system: UACC-62 melanoma
UO-31 renal = test system: UO-31 renal

COc1ccc(-c2nnc3c(/C=C/c4ccc(Br)cc4)nc4ccccc4n23)cc1
TGI (NCI-H226 lung): 4.5 µM
GI50 (NCI-H23 lung): 9.39 µM
TGI (NCI-H23 lung): 21.3 µM
GI50 (NCI-H460 lung): 11.2 µM
TGI (NCI-H460 lung): 23.2 µM
GI50 (NCI-H522 lung): 0.156 µM
TGI (NCI-H522 lung): 0.301 µM
GI50 (NCI/ADR-RES ovarian): 10.3 µM
TGI (NCI/ADR-RES ovarian): 25.9 µM
GI50 (OVCAR-3 ovarian): 3.43 µM
TGI (OVCAR-3 ovarian): 14 µM
GI50 (OVCAR-4 ovarian): 3.96 µM
TGI (OVCAR-4 ovarian): 16.4 µM
GI50 (OVCAR-5 ovarian): 3.97 µM
TGI (OVCAR-5 ovarian): 16 µM
GI50 (OVCAR-8 ovarian): 10.4 µM
TGI (OVCAR-8 ovarian): 22.1 µM
GI50 (PC-3 prostate): 11.4 µM
TGI (PC-3 prostate): 23.5 µM
GI50 (RPMI-8226 leukemia): 4.11 µM
TGI (RPMI-8226 leukemia): 18.4 µM
GI50 (RXF 393 renal): 1.24 µM
TGI (RXF 393 renal): 2.53 µM
GI50 (SF-268 CNS): 14.4 µM
TGI (SF-268 CNS): 34.7 µM
GI50 (SF-295 CNS): 16 µM
TGI (SF-295 CNS): 33.1 µM
GI50 (SF-539 CNS): 2.45 µM
TGI (SF-539 CNS): 6.91 µM
GI50 (SK-MEL-2 melanoma): 10.9 µM
TGI (SK-MEL-2 melanoma): 22.8 µM
GI50 (SK-MEL-28 melanoma): 8.85 µM
TGI (SK-MEL-28 melanoma): 21.1 µM
GI50 (SK-MEL-5 melanoma): 10.8 µM
TGI (SK-MEL-5 melanoma): 22.7 µM
GI50 (SK-OV-3 ovarian): 21.7 µM
TGI (SK-OV-3 ovarian): 64 µM
GI50 (SN12C renal): 2.24 µM
TGI (SN12C renal): 8.9 µM
GI50 (SNB-19 CNS): 13.7 µM
TGI (SNB-19 CNS): 26.8 µM
GI50 (SNB-75 CNS): 16 µM
TGI (SNB-75 CNS): 34.1 µM
GI50 (SR leukemia): 1.04 µM
TGI (SR leukemia): 3.94 µM
GI50 (SW-620 colon): 0.728 µM
TGI (SW-620 colon): 2.24 µM
GI50 (T-47D breast): 10.5 µM
TGI (T-47D breast): 25.5 µM
GI50 (TK-10 renal): 13.5 µM
TGI (TK-10 renal): 26.3 µM
GI50 (U251 CNS): 6.97 µM
TGI (U251 CNS): 19.7 µM
GI50 (UACC-257 melanoma): 13.1 µM
TGI (UACC-257 melanoma): 25.8 µM
GI50 (UACC-62 melanoma): 5.61 µM
TGI (UACC-62 melanoma): 19.5 µM
GI50 (UO-31 renal): 2.93 µM
TGI (UO-31 renal): 16.4 µM
